For 75 molecules, IC50 and inhibition results are on record in the Kinase Knowledgebase extract (Sharma et al. 2016).

Molecules are shown by their SMILES.

As usually defined, the IC50 is the concentration that inhibits the measured activity by half. A lower IC50 goes with greater potency. A word on the inhibition: it is the drop in the measured response relative to a control, in per cent. Low readings indicate a weak effect, high ones a strong effect.

The target in the first assay is MAPK14 (human) (UniProt Q16539). As to the kind of experiment: Inhibition of MAPK14 Kinase Activity.
MAPK14 (human), sequence (Q16539 whole entry, looked up): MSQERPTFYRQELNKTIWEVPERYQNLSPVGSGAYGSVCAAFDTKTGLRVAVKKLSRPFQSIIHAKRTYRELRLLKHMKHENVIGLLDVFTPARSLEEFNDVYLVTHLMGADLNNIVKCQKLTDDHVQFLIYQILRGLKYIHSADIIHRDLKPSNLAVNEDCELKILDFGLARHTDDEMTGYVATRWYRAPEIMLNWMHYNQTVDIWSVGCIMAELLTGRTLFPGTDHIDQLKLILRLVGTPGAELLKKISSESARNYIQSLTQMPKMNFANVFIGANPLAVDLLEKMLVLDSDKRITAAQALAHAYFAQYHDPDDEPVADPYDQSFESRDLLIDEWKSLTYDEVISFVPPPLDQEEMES
Settings: not given
The molecule `CC(C)(C)c1cc(C(=O)N2CCNC(=O)C2(C)C)c(NC(=O)Nc2ccc(F)cc2Cl)s1` showed an IC50 of less than 5 µM. On the same count and under the same terms, then `COC(=O)N1CCN(C(=O)c2cc(C(C)(C)C)sc2NC(=O)Nc2cccc(Cl)c2Cl)CC1`, with less than 5 µM; and `CC(C)(C)c1cc(C(=O)N2CCNC(=O)C2(C)C)c(NC(=O)Nc2ccc(C#N)c(Cl)c2Cl)s1`, with less than 5 µM. Still for that read-out and setting: then `COc1ccccc1NC(=O)Nc1sc(C(C)(C)C)cc1C(=O)N1CCNC(=O)CC1`, with less than 5 µM; and `CC(C)(C)c1cc(C(=O)N2CCNC(=O)CC2)c(NC(=O)Nc2ccccc2I)s1`, with less than 5 µM; and `CON(C)C(=O)CN1CCN(C(=O)c2cc(C(C)(C)C)sc2NC(=O)Nc2ccc(F)cc2Cl)C(C)(C)C1=O`, with less than 5 µM. `CN(C)CCN1CCN(C(=O)c2[nH]c(C(C)(C)C)cc2NC(=O)Nc2cccc(Cl)c2Cl)C(C)(C)C1=O` came in with a half-inhibitory concentration (IC50) of less than 5 µM. Still for that read-out and setting: then `CN(C)CCNC(=O)CN1CCN(C(=O)c2cc(C(C)(C)C)sc2NC(=O)Nc2ccc(F)cc2Cl)C(C)(C)C1=O`, with less than 5 µM; and `Cc1ccccc1NC(=O)Nc1sc(C(C)(C)C)cc1C(=O)N1CCNC(=O)C1(C)C`, with less than 5 µM. Same read-out and setting: the result for `CCC1(C)C(=O)N(CC(=O)NCCN(C)C)CCN1C(=O)c1cc(C(C)(C)C)sc1NC(=O)Nc1cccc(Cl)c1Cl` (stereo not given) reads less than 5 µM.

In the case of `CC(C)(C)c1cc(C(=O)NCC(F)(F)F)c(NC(=O)Nc2cccc(Cl)c2Cl)s1`, the IC50 was less than 5 µM. On to `CC(C)(C)c1cc(C(=O)N2CCC(=O)N(CCc3nnn[nH]3)CC2)c(NC(=O)Nc2cccc(Cl)c2Cl)s1`, for which the IC50 was less than 5 µM. The same measure, in the same setting: then `CN(C)CCN(C)C(=O)CN1CCN(C(=O)c2cc(C(C)(C)C)sc2NC(=O)Nc2cccc(Cl)c2Cl)C(C)(C)C1=O`, with less than 5 µM; and `CC(C)(C)c1cc(C(=O)N2CCNC(=O)C2)c(NC(=O)Nc2ccc(F)c(Cl)c2Cl)s1`, with less than 5 µM. On the same count and under the same terms, the result for `CN(C)CCN1CCN(C(=O)c2cc(C(C)(C)C)sc2NC(=O)Nc2ccccc2C(F)(F)F)CCC1=O` reads less than 5 µM. On the same count and under the same terms, then `CC(C)(C)c1cc(C(=O)N2CCS(=O)(=O)CC2)c(NC(=O)Nc2ccc(F)c(Cl)c2Cl)s1`, with less than 5 µM; and `CC1(C)OCC(CN2CCN(C(=O)c3cc(C(C)(C)C)sc3NC(=O)Nc3cccc(Cl)c3Cl)C(C)(C)C2=O)O1` (stereo not given), with less than 5 µM.

`CC(C)(C)c1cc(C(=O)N2CCNC(=O)C2(C)C)c(NC(=O)Nc2ccncc2Cl)s1`: the IC50 is less than 5 µM.

Regarding `CC(C)(C)c1cc(C(=O)N2CCNC(=O)CC2)c(NC(=O)Nc2ccccc2Br)s1`, the IC50 was less than 5 µM. In the case of `CON(C)C(=O)CN1CCN(C(=O)c2cc(C(C)(C)C)sc2NC(=O)Nc2ccc(F)c(F)c2Cl)C(C)(C)C1=O`, the IC50 is less than 5 µM. On the same count and under the same terms, the result for `COc1ccccc1NC(=O)Nc1sc(C(C)(C)C)cc1C(=O)N1CCN(CCN(C)C)C(=O)C1(C)C` reads less than 5 µM. Still for that read-out and setting: then `CC(C)(C)c1cc(C(=O)N2CCNCC2)c(NC(=O)Nc2cccc(Cl)c2Cl)s1`, with less than 5 µM.

`CC(C)(C)c1cc(C(=O)N2CCNC(=O)C2(C)C)c(NC(=O)Nc2ccc(C#N)c3ccccc23)s1` yielded an IC50 of less than 5 µM. Same read-out and setting: the result for `CC(C)(C)c1cc(C(=O)N2CCNC(=O)CC2)c(NC(=O)Nc2ccccc2Cl)s1` reads less than 5 µM. In turn, `CON(C)C(=O)CC1(C)C(=O)NCCN1C(=O)c1cc(C(C)(C)C)sc1NC(=O)Nc1ccc(F)c(Cl)c1Cl` (stereo not given) yielded an IC50 of less than 5 µM. Same read-out and setting: then `COc1ccc(CN2CCN(C(=O)c3cc(C(C)(C)C)sc3NC(=O)Nc3cccc(Cl)c3Cl)C(C)(C)C2=O)cc1`, with less than 5 µM; and `CC(C)(C)c1cc(NC(=O)Nc2ccc(F)c(Cl)c2Cl)c(C(=O)N2CCNC(=O)C2(C)CCO)s1` (stereo not given), with less than 5 µM; and `CC(C)(C)c1cc(C(=O)N2CCNC(=O)C2(C)C)c(NC(=O)Nc2c(Cl)cncc2Cl)s1`, with less than 5 µM. On the same count and under the same terms, then `CN(C)C(=O)CN1CCN(C(=O)c2cc(C(C)(C)C)sc2NC(=O)Nc2cccc(Cl)c2Cl)C(C)(C)C1=O`, with less than 5 µM; and `CC(C)(C)c1cc(C(=O)N2CCS(=O)(=O)CC2)c(NC(=O)Cc2cccc(Cl)c2Cl)s1`, with less than 5 µM. Same read-out and setting: then `CN(C)CCN1CCN(C(=O)c2cc(C(C)(C)C)sc2NC(=O)Nc2ccccc2C(C)(C)C)CCC1=O`, with less than 5 µM. Regarding `CC(C)(C)c1cc(C(=O)N2CCNC(=O)CC2)c(NC(=O)Nc2ccc(F)c(F)c2Cl)s1`, the IC50 was less than 5 µM. The same measure, in the same setting: the result for `CN(C)CCCNC(=O)CN1CCN(C(=O)c2cc(C(C)(C)C)sc2NC(=O)Nc2cccc(Cl)c2Cl)C(C)(C)C1=O` reads less than 5 µM; that for `CC(=O)N1CCN(C(=O)c2cc(C(C)(C)C)sc2NC(=O)Nc2cccc(Cl)c2Cl)CC1`, less than 5 µM; that for `CCOC(=O)C1(C)C(=O)NCCN1C(=O)c1cc(C(C)(C)C)sc1NC(=O)Nc1cccc(Cl)c1Cl` (stereo not given), less than 5 µM. Still for that read-out and setting: then `CC(C)(C)c1cc(C(=O)N2CCNC(=O)C2(C)C)c(NC(=O)Nc2ccc(OC(F)F)c(Cl)c2Cl)s1`, with less than 5 µM; and `CC(C)(C)OC(=O)N1CCN(C(=O)c2cc(C(C)(C)C)sc2NC(=O)Nc2cccc(Cl)c2Cl)CC1`, with less than 5 µM; and `CN(C)CCN1CCN(C(=O)c2cc(C(C)(C)C)sc2NC(=O)Nc2cccnc2Cl)C(C)(C)C1=O`, with less than 5 µM.

In the case of `CCOC(=O)CN1CCN(C(=O)c2cc(NC(=O)Nc3ccc(F)c(Cl)c3Cl)c(C(C)(C)C)s2)C(C)(CC(=O)OC)C1=O` (stereo not given), the concentration for half-maximal inhibition (IC50) was less than 5 µM.

`CCC1C(=O)NCCN1C(=O)c1cc(C(C)(C)C)sc1NC(=O)Nc1ccc(F)c(Cl)c1Cl` (stereo not given) yielded an IC50 of less than 5 µM. In turn, `CC(C)(C)c1cc(C(=O)N2CCNC(=O)C2(C)C)c(NC(=O)Nc2cccc3ccccc23)s1` returned an IC50 of less than 5 µM. Same read-out and setting: then `COc1ccc(CCC(=O)N2CCN(C(=O)c3cc(C(C)(C)C)sc3NC(=O)Nc3cccc(Cl)c3Cl)CC2)cc1`, with less than 5 µM; and `COC(=O)CC1(C)C(=O)NCCN1C(=O)c1cc(C(C)(C)C)sc1NC(=O)Nc1cccc(Cl)c1Cl` (stereo not given), with less than 5 µM. On the same count and under the same terms, the result for `CN(C)CCN1CCN(C(=O)c2sc(C(C)(C)C)cc2NC(=O)Nc2ccc(F)c(Cl)c2Cl)CCC1=O` reads less than 5 µM. Molecule `CC(C)(C)c1cc(C(=O)N2CCNC(=O)C2(C)C)c(NC(=O)Nc2cc(Cl)cc(Cl)c2)s1` had a half-inhibitory concentration (IC50) of less than 5 µM. Same read-out and setting: the result for `Cn1c(C(C)(C)C)cc(NC(=O)Nc2cccc(Cl)c2Cl)c1C(=O)N1CCNC(=O)C1(C)C` reads less than 5 µM; that for `CC(C)(C)c1cc(C(=O)N2CCNC(=O)CC2)c(NC(=O)Nc2ccccc2C(F)(F)F)s1`, less than 5 µM; that for `CC(C)(C)c1cc(C(=O)N2CCN(S(C)(=O)=O)CC2)c(NC(=O)Nc2cccc(Cl)c2Cl)s1`, less than 5 µM. On the same count and under the same terms, then `CN(C)C(=O)N1CCN(C(=O)c2cc(C(C)(C)C)sc2NC(=O)Nc2cccc(Cl)c2Cl)CC1`, with less than 5 µM. Molecule `CC(C)(C)c1cc(C(=O)N2CCN(C(=O)N3CCOCC3)CC2)c(NC(=O)Nc2cccc(Cl)c2Cl)s1` had a half-inhibitory concentration (IC50) of less than 5 µM. In turn, `CCC1(C)C(=O)NCCN1C(=O)c1cc(C(C)(C)C)sc1NC(=O)Nc1cccc(Cl)c1Cl` (stereo not given) had an IC50 of less than 5 µM. Same read-out and setting: then `CC(C)(C)c1cc(C(=O)N2CCCN(S(C)(=O)=O)CC2)c(NC(=O)Nc2cccc(Cl)c2Cl)s1`, with less than 5 µM; and `CC(C)(C)c1cc(NC(=O)Nc2cccc(Cl)c2Cl)c(C(=O)N2CCNC(=O)CC2)[nH]1`, with less than 5 µM. The same measure, in the same setting: the result for `CCc1ccccc1NC(=O)Nc1sc(C(C)(C)C)cc1C(=O)N1CCC(=O)N(CCN(C)C)CC1` reads less than 5 µM; that for `CC(C)(C)c1cc(C(=O)N2CCNC(=O)C2(C)C)c(NC(=O)Nc2cccc3c2OCO3)s1`, less than 5 µM; that for `CC(C)(C)c1cc(C(=O)N2CCN(CC(=O)NCC3CC3)C(=O)C2(C)C)c(NC(=O)Nc2cccc(Cl)c2Cl)s1`, less than 5 µM. On the same count and under the same terms, then `CCC1(C)C(=O)NCCN1C(=O)c1cc(C(C)(C)C)sc1NC(=O)Nc1ccc(F)c(Cl)c1Cl` (stereo not given), with less than 5 µM; and `CN(C)CCN1CCN(C(=O)c2cc(C(C)(C)C)sc2NC(=O)Nc2ccc(F)cc2Cl)CCC1=O`, with less than 5 µM; and `CC(C)(C)OC(=O)N1CCN(C(=O)c2cc(C(C)(C)C)sc2NC(=O)Nc2cccc(Cl)c2Cl)CC1(C)C`, with less than 5 µM. `CON(C)C(=O)CN1CCN(C(=O)c2[nH]c(C(C)(C)C)cc2NC(=O)Nc2cccc(Cl)c2Cl)C(C)(C)C1=O` returned an IC50 of less than 5 µM. The same measure, in the same setting: then `CCN(CC)CCNC(=O)CN1CCN(C(=O)c2cc(C(C)(C)C)sc2NC(=O)Nc2cccc(Cl)c2Cl)C(C)(C)C1=O`, with less than 5 µM; and `CN(C)CCNC(=O)CN1CCN(C(=O)c2cc(C(C)(C)C)sc2NC(=O)Nc2cccc(Cl)c2Cl)C(C)(C)C1=O`, with less than 5 µM. Same read-out and setting: then `CN(C)CCNC(=O)CN1CCN(C(=O)c2sc(C(C)(C)C)cc2NC(=O)Nc2ccc(F)c(F)c2Cl)C(C)(C)C1=O`, with less than 5 µM. Same read-out and setting: the result for `CN(C)CCNC(=O)CN1CCN(C(=O)c2sc(C(C)(C)C)cc2NC(=O)Nc2ccnc(Cl)c2Cl)C(C)(C)C1=O` reads less than 5 µM.

The assay is the same for the next values; noted with them: concentration not given here.
With `CC(C)(C)c1cc(NC(=O)Nc2ccc(Cl)c(Cl)c2)c(C(=O)N2CCNC(=O)CC2)s1`, the inhibition was in the range of 76 to 100%. Same read-out and setting: the result for `CC1C(=O)NCCN1C(=O)c1cc(C(C)(C)C)sc1NC(=O)Nc1ccc2ccccc2c1` (stereo not given) reads 76 to 100%. The same measure, in the same setting: then `CC(C)(C)c1cc(C(=O)N2CCNS(=O)(=O)CC2)c(NC(=O)Nc2cc(Cl)cc(Cl)c2)s1`, with 76 to 100%; and `Cc1cccc(NC(=O)Nc2sc(C(C)(C)C)cc2C(=O)N2CCNS(=O)(=O)CC2)c1`, with 76 to 100%.

`CC(C)(C)c1cc(C(=O)N2CCNS(=O)(=O)CC2)c(NC(=O)NC2(c3ccccc3)CC2)s1` displayed an inhibition of 26 to 50%.

Take `CC(C)(C)c1cc(C(=O)N2CCNC(=O)CC2)c(NC(=O)Nc2ccc(CN)cc2)s1`: the inhibition was 51 to 75%. Turning to `CC(C)(C)c1cc(C(=O)N2CCNS(=O)(=O)CC2)c(NC(=O)Nc2ccc(C#N)c(Cl)c2)s1`, the inhibition lay in the range of 76 to 100%. Same read-out and setting: then `CC(C)(C)c1cc(C(=O)N2CCC(=O)N(CC(N)=O)CC2)c(NC(=O)Nc2cccc(Cl)c2Cl)s1`, with 76 to 100%. Same read-out and setting: then `CC(C)(C)c1cc(C(=O)N2CCNC(=O)CC2)c(NC(=O)NC2CCNCC2)s1`, with 0 to 25%; and `COC(=O)CC1C(=O)NCCN1C(=O)c1cc(C(C)(C)C)sc1NC(=O)Nc1ccc2ccccc2c1` (stereo not given), with 76 to 100%; and `CC(C)(C)c1cc(C(=O)N2CCNS(=O)(=O)CC2)c(NC(=O)Nc2cnc(O)c3ccccc23)s1`, with 26 to 50%.
